Experimental findings from patent US9896441B2 (Lycera Corporation, priority 2014, dated 2018) are described below.

The target in one assay is T1, RORγ-LBD (Homo sapiens, UniProt P51449).
T1 construct: made in house; host or cells: SF9 cells (baculovirus); used as diluted lysate
T1 sequence (P51449 269-508 limits assumed): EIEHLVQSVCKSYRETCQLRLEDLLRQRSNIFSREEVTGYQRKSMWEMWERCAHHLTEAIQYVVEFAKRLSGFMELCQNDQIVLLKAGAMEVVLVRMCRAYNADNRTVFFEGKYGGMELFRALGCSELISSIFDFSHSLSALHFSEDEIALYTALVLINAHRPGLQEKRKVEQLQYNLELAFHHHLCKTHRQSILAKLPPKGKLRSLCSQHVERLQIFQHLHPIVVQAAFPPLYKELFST
Nature of the assay: RORγ-Ligand Binding Domain (LBD) TR-FRET Assay.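 On TR-FRET Assay Max Response: 665/615 nm signal ratio set to 100 without ursolic acid or test compound.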 The settings on record: RORγ-LBD TR-FRET assay; for TR-FRET Assay Max Response: maximum response. The class given is biochemical. The method, boiled down: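 This TR-FRET coactivator assay pairs baculovirus-expressed His-RORγ-LBD (~3 nM final) with biotin-SRC1 LXXLL peptide at 200 nM final in pH 7.0 Tris/KCl/EDTA/DTT/BSA buffer.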

A further assay deals with T2, Gal4-RORγ-LBD (Homo sapiens, UniProt P51449).
T2 construct: expressed in transfected cells
T2 sequence (P51449 269-508 limits assumed): T1 sequence (P51449 269-508 limits assumed)
Nature of the assay: Gal4-RORγ Luciferase Reporter Assay in HEK-293T Cells. The class given is cell-based. To be noted: HEK-293 cells, luciferase reporter, in presence of ursolic acid; for Gal4-RORγ Assay Max Response: maximum response. A digest of the protocol:
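HEK-293 cells were co-transfected with Gal4-RORγ-LBD and a Gal4-luciferase reporter, then exposed overnight at 37 °C to compounds with […] ursolic acid present (0.2% DMSO). Luminescence was read with One-Glo after 10 min at RT, untreated signal was set as 100, and Max Response was taken as the upper plateau of a 4-parameter logistic fit.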

For the compound `COc1cc(S(=O)(=O)N2C[C@H](CNC(=O)CCC(=O)O)Oc3ccc(/C=C(\C)c4c(F)cccc4Cl)cc32)ccc1F` [Example 132, (S,E)-4-(((6-(2-(2-Chloro-6-fluorophenyl)prop-1-en-1-yl)-4-((4-fluoro-3-methoxyphenyl)sulfonyl)-3,4-dihydro-2H-benzo[b][1,4]oxazin-2-yl)methyl)amino)-4-oxobutanoic acid], at RORγ-LBD, the EC50 is less than 500 nM and the “TR-FRET Assay Max Response” value was “**** (a value greater than 200)”. Besides, on Gal4-RORγ-LBD, the EC50 was in the range of 500 to 5000 nM and the “Gal4-RORγ Assay Max Response” value is given as “*** (a value in the range of greater than 150 to 200)”.

In the case of `COC(=O)c1ccc(C(=O)NC[C@H]2CN(S(=O)(=O)c3ccc(F)c(OC)c3)c3cc(/C=C(\C)c4c(F)cccc4Cl)ccc3O2)cc1` [Example 133, Methyl (S,E)-4-(((6-(2-(2-chloro-6-fluorophenyl)prop-1-en-1-yl)-4-((4-fluoro-3-methoxyphenyl)sulfonyl)-3,4-dihydro-2H-benzo[b][1,4]oxazin-2-yl)methyl)carbamoyl)benzoate], on RORγ-LBD, the EC50 is less than 500 nM and the “TR-FRET Assay Max Response” value was “**** (a value greater than 200)”. Moreover, at Gal4-RORγ-LBD, the EC50 was less than 500 nM and the “Gal4-RORγ Assay Max Response” value was “* (a value in the range of 30 to 90)”.

In the case of `COc1cc(S(=O)(=O)N2C[C@H](CNC(=O)c3ccc(C(=O)O)cc3)Oc3ccc(/C=C(\C)c4c(F)cccc4Cl)cc32)ccc1F` [Example 134, (S,E)-4-(((6-(2-(2-Chloro-6-fluorophenyl)prop-1-en-1-yl)-4-((4-fluoro-3-methoxyphenyl)sulfonyl)-3,4-dihydro-2H-benzo[b][1,4]oxazin-2-yl)methyl)carbamoyl)benzoic acid], on RORγ-LBD, the EC50 was less than 500 nM and the “TR-FRET Assay Max Response” value is “**** (a value greater than 200)”. Besides, on Gal4-RORγ-LBD, the EC50 was less than 500 nM and the “Gal4-RORγ Assay Max Response” value is “*** (a value in the range of greater than 150 to 200)”.

In the case of `COc1cc(S(=O)(=O)N2C[C@H](CNC(=O)c3cccc(C(=O)O)c3)Oc3ccc(/C=C(\C)c4c(F)cccc4Cl)cc32)ccc1F` [Example 135A, (S,E)-3-(((6-(2-(2-chloro-6-fluorophenyl)prop-1-en-1-yl)-4-((4-fluoro-3-methoxyphenyl)sulfonyl)-3,4-dihydro-2H-benzo[b][1,4]oxazin-2-yl)methyl)carbamoyl)benzoic acid], on RORγ-LBD, the EC50 was less than 500 nM and the “TR-FRET Assay Max Response” value is “*** (a value in the range of greater than 150 to 200)”. On Gal4-RORγ-LBD, the EC50 is 500 to 5000 nM and the “Gal4-RORγ Assay Max Response” value is given as “* (a value in the range of 30 to 90)”.

Regarding `COc1cc(S(=O)(=O)N2C[C@H](CNC(=O)C(=O)O)Oc3ccc(/C=C(\C)c4c(F)cccc4Cl)cc32)ccc1F` [Example 135B, (S,E)-2-(((6-(2-(2-chloro-6-fluorophenyl)prop-1-en-1-yl)-4-((4-fluoro-3-methoxyphenyl)sulfonyl)-3,4-dihydro-2H-benzo[b][1,4]oxazin-2-yl)methyl)amino)-2-oxoacetic acid], at RORγ-LBD, the EC50 is less than 500 nM and the “TR-FRET Assay Max Response” value is reported as “**** (a value greater than 200)”. Also, the EC50 on Gal4-RORγ-LBD was greater than 10000 nM.

In the case of `COc1cc(S(=O)(=O)N2C[C@H](CNC(=O)[C@H]3CC[C@H](C(=O)O)CC3)Oc3ccc(/C=C(\C)c4c(F)cccc4Cl)cc32)ccc1F` [Example 135C, (1S,4r)-4-((((S)-6-((E)-2-(2-chloro-6-fluoro-phenyl)prop-1-en-1-yl)-4-((4-fluoro-3-methoxy-phenyl)sulfonyl)-3,4-dihydro-2H-benzo[b][1,4]oxazin-2-yl)methyl)carbamoyl)-cyclohexane-1-carboxylic acid], at RORγ-LBD, the EC50 is less than 500 nM and the “TR-FRET Assay Max Response” value is listed as “*** (a value in the range of greater than 150 to 200)”. Also, on Gal4-RORγ-LBD, the concentration giving a half-maximal response (EC50) is 500 to 5000 nM and the “Gal4-RORγ Assay Max Response” value is “* (a value in the range of 30 to 90)”.

For the compound `COc1cc(S(=O)(=O)N2c3cc(/C=C/c4c(F)cccc4Cl)ccc3O[C@@H](CO)[C@H]2C)ccc1F` [Example 136, ((2R,3R)-6-((E)-2-Chloro-6-fluorostyryl)-4-((4-fluoro-3-methoxyphenyl)sulfonyl)-3-methyl-3,4-dihydro-2H-benzo[b][1,4]oxazin-2-yl)methanol], at RORγ-LBD, the EC50 was less than 500 nM and the “TR-FRET Assay Max Response” value was “**** (a value greater than 200)”. For the same compound, on Gal4-RORγ-LBD, the EC50 was less than 500 nM and the “Gal4-RORγ Assay Max Response” value is recorded as “** (a value in the range of greater than 90 to 150)”.

With `COc1cc(S(=O)(=O)N2c3cc(/C=C(\C)c4c(F)cccc4Cl)ccc3O[C@@H](CNC(C)=O)[C@H]2C)ccc1F` [Example 137], at RORγ-LBD, the EC50 is less than 500 nM and the “TR-FRET Assay Max Response” value was “**** (a value greater than 200)”. Besides, at Gal4-RORγ-LBD, the EC50 is less than 500 nM and the “Gal4-RORγ Assay Max Response” value is “** (a value in the range of greater than 90 to 150)”.

Take `COc1cc(S(=O)(=O)N2c3cc(OCc4c(F)cccc4Cl)ccc3C=C(CO)[C@H]2C)ccc1F` [Example 138, (R)-(7-((2-Chloro-6-fluorobenzyl)oxy)-1-((4-fluoro-3-methoxyphenyl)sulfonyl)-2-methyl-1,2-dihydroquinolin-3-yl)methanol]: at RORγ-LBD, the EC50 was less than 500 nM and the “TR-FRET Assay Max Response” value was “** (a value in the range of greater than 90 to 150)”. At Gal4-RORγ-LBD, the EC50 is less than 500 nM and the “Gal4-RORγ Assay Max Response” value is “*** (a value in the range of greater than 150 to 200)”.

For the compound `COc1cc(S(=O)(=O)N2c3cc(OCc4c(F)cccc4Cl)ccc3C=C(CN)[C@H]2C)ccc1F` [Example 139, (R)-(7-((2-Chloro-6-fluorobenzyl)oxy)-1-((4-fluoro-3-methoxyphenyl)sulfonyl)-2-methyl-1,2-dihydroquinolin-3-yl)methanamine], the figures for the EC50 at RORγ-LBD and on Gal4-RORγ-LBD were less than 500 nM and 500 to 5000 nM, respectively.

Consider `COc1cc(S(=O)(=O)N2c3cc(OCc4c(F)cccc4Cl)ccc3C=C(CNC(C)=O)[C@H]2C)ccc1F` [Example 140, (R)—N-((7-((2-Chloro-6-fluorobenzyl)oxy)-1-((4-fluoro-3-methoxyphenyl)sulfonyl)-2-methyl-1,2-dihydroquinolin-3-yl)methyl)acetamide], for which the concentration giving a half-maximal response (EC50) at RORγ-LBD and on Gal4-RORγ-LBD was less than 500 nM each time.

On to `C/C(=C\c1ccc2c(c1)N(S(=O)(=O)c1cccc(C(F)(F)F)c1)[C@H](C)[C@H](C(=O)O)C2)c1c(F)cccc1Cl` [Example 142, (2R,3R)-7-((E)-2-(2-Chloro-6-fluorophenyl)prop-1-en-1-yl)-2-methyl-1-((3-(trifluoromethyl)phenyl)sulfonyl)-1,2,3,4-tetrahydroquinoline-3-carboxylate], for which, at RORγ-LBD, the EC50 is less than 500 nM and the “TR-FRET Assay Max Response” value was “** (a value in the range of greater than 90 to 150)”. Moreover, on Gal4-RORγ-LBD, the EC50 is less than 500 nM and the “Gal4-RORγ Assay Max Response” value is recorded as “** (a value in the range of greater than 90 to 150)”.

`C/C(=C\c1ccc2c(c1)N(S(=O)(=O)c1cccc(C(F)(F)F)c1)[C@H](C)[C@H](NC(=O)N(C)C)C2)c1c(F)cccc1Cl` [Example 146, 3-((2R,3R)-7-((E)-2-(2-Chloro-6-fluorophenyl)prop-1-en-1-yl)-2-methyl-1-((3-(trifluoromethyl)phenyl)sulfonyl)-1,2,3,4-tetrahydroquinolin-3-yl)-1,1-dimethylurea]: at RORγ-LBD, the EC50 is less than 500 nM and the “TR-FRET Assay Max Response” value was “** (a value in the range of greater than 90 to 150)”. Further, on Gal4-RORγ-LBD, the EC50 is greater than 10000 nM.

`C/C(=C\c1ccc2c(c1)N(S(=O)(=O)c1cccc(C(F)(F)F)c1)[C@H](C)[C@H](N)C2)c1c(F)cccc1Cl` [Example 147, (2R,3R)-7-((E)-2-(2-Chloro-6-fluorophenyl)prop-1-en-1-yl)-2-methyl-1-((3-(trifluoromethyl)phenyl)sulfonyl)-1,2,3,4-tetrahydroquinolin-3-amine]: at RORγ-LBD, the EC50 is less than 500 nM and the “TR-FRET Assay Max Response” value is given as “*** (a value in the range of greater than 150 to 200)”. Besides, on Gal4-RORγ-LBD, the EC50 is 500 to 5000 nM and the “Gal4-RORγ Assay Max Response” value is recorded as “** (a value in the range of greater than 90 to 150)”.

In the case of `COc1cc(S(=O)(=O)N2c3cc(OCc4c(F)cccc4Cl)ccc3C[C@@H](CNC(C)=O)[C@H]2C)ccc1F` [Example 152, N-(((2R,3S)-7-((2-Chloro-6-fluorobenzyl)oxy)-1-((4-fluoro-3-methoxyphenyl)sulfonyl)-2-methyl-1,2,3,4-tetrahydroquinolin-3-yl)methyl)acetamide], on RORγ-LBD, the EC50 is less than 500 nM and the “TR-FRET Assay Max Response” value was “*** (a value in the range of greater than 150 to 200)”. Further, at Gal4-RORγ-LBD, the EC50 is less than 500 nM and the “Gal4-RORγ Assay Max Response” value is “** (a value in the range of greater than 90 to 150)”.

Turning to `COC(=O)C(C)(C)C[C@@H]1Cc2ccc(/C=C/c3c(F)cccc3Cl)cc2N(S(=O)(=O)c2ccc(F)c(OC)c2)C1` [Example 153, Methyl (S,E)-3-(7-(2-chloro-6-fluorostyryl)-1-((4-fluoro-3-methoxyphenyl)sulfonyl)-1,2,3,4-tetrahydroquinolin-3-yl)-2,2-dimethylpropanoate], on RORγ-LBD, the EC50 is less than 500 nM and the “TR-FRET Assay Max Response” value is “*** (a value in the range of greater than 150 to 200)”. Besides, on Gal4-RORγ-LBD, the EC50 is greater than 10000 nM and the “Gal4-RORγ Assay Max Response” value is “* (a value in the range of 30 to 90)”.
